Reference: patent US20260167623A1 (NIKANG THERAPEUTICS, INC., priority 2022, published 2026)

Columns and labels:
CDK2 [1] = target: T1, CDK2 (Homo sapiens, UniProt P24941); assay: Inhibition of CDK2: phospho-Rb (S807/811) HTRF measurement in OVCAR3 cells, 24 h; assay type: cell-based; conditions: 24 h compound treatment, read-out: pRB_OVCAR3_24h
T1 construct: High-Throughput Measurement of Cellular Endogenous CDK2; endogenous in cells; host or cells: OVCAR3
Procedure, shortened: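 OVCAR3 cells, seeded overnight, were exposed to compounds at 0.3 to 10,000 nM for 24 h, then lysed. Rb S807/811 phosphorylation read by HTRF (665/620 nm ratio) after 4 h detection at room temperature; data normalized to DMSO and IC50 from four-parameter logistic fit.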

CDK2 [2] = target: T1, CDK2; assay: High-throughput HTRF measurement of cellular endogenous CDK2 level (degradation, DC50/Dmax) in OVCAR3 cells, 6 h; assay type: cell-based; conditions: 6 h compound treatment, HTRF total CDK2, read-out: DC50_OVCAR3_6h
Procedure, shortened: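 OVCAR3 cells were treated overnight after seeding with compounds at 0.03–1,000 nM for 6 h, then lysed. Total CDK2 was quantified by HTRF (d2- and Eu-cryptate anti-CDK2 antibodies, […] ratio) after overnight incubation at room temperature. Data normalized to DMSO (0%) and lysis buffer (100% degradation); DC50 from four-parameter logistic fit.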

Structure (SMILES)	IC50 (CDK2 [1]) [nM]	DC50 (CDK2 [2]) [nM]
Cn1nc(N2CCC(=O)NC2=O)c2cc(F)c(C3CCN(CC4CCN(c5cccc(S(=O)(=O)N6CCC(Nc7ncc(Cl)cn7)CC6)c5)CC4)CC3)cc21 [Example 99, 1-(6-(1-((1-(3-((4-((5-chloropyrimidin-2-yl)amino)piperidin-1-yl)sulfonyl)phenyl)-piperidin-4-yl)methyl)piperidin-4-yl)-5-fluoro-1-methyl-1H-indazol-3-yl)dihydropyrimidine-2,4(1H,3H)-dione]	1 to 100	10 to 100
Cn1nc(N2CCC(=O)NC2=O)c2ccc(C3CCN(CC4CCN(c5cccc(S(=O)(=O)N6CC[C@H](Nc7ncc(C(F)(F)F)cn7)[C@H](F)C6)c5)CC4)CC3)cc21 (racemic) [Example 223, Rac-1-(6-(1-((1-(3-(((3R,4S)-3-fluoro-4-((5-(trifluoromethyl)pyrimidin-2-yl)amino)piperidin-1-yl)sulfonyl)phenyl)piperidin-4-yl)methyl)piperidin-4-yl)-1-methyl-1H-indazol-3-yl)dihydropyrimidine-2,4(1H,3H)-dione]	1 to 100	1 to 10
Cn1nc(N2CCC(=O)NC2=O)c2ccc(C3CCN(CC4CCN(c5cc(S(=O)(=O)N6CCC(Nc7ncc(Cl)cn7)CC6)ccc5C#N)CC4)CC3)c(F)c21 [Example 150, 4-((4-((5-chloropyrimidin-2-yl)amino)piperidin-1-yl)sulfonyl)-2-(4-((4-(3-(2,4-dioxotetrahydropyrimidin-1(2H)-yl)-7-fluoro-1-methyl-1H-indazol-6-yl)piperidin-1-yl)methyl)piperidin-1-yl)benzonitrile]	1 to 100	10 to 100
Cn1nc(N2CCC(=S)NC2=O)c2ccc(C3CCN(CC4CCN(c5cccc(S(=O)(=O)N6CCC(Nc7ncc(Cl)cn7)CC6)c5)CC4)CC3)cc21 [Example 239, 1-(6-(1-((1-(3-((4-((5-chloropyrimidin-2-yl)amino)piperidin-1-yl)sulfonyl)phenyl)piperidin-4-yl)methyl)piperidin-4-yl)-1-methyl-1H-indazol-3-yl)-4-thioxotetrahydropyrimidin-2(1H)-one]	100 to 500	10 to 100
O=C1CCC(N2Cc3cc(N4CCN(Cc5cccc(S(=O)(=O)N6CCC(Nc7ncc(C(F)(F)F)cn7)CC6)c5)CC4)ccc3C2=O)C(=O)N1 (centres unmarked) [Example 76, 3-(1-oxo-5-(4-(3-((4-((5-(trifluoromethyl)-pyrimidin-2-yl)amino)piperidin-1-yl)sulfonyl)benzyl)piperazin-1-yl)isoindolin-2-yl)piperidine-2,6-dione]	1 to 100	1 to 10
CC(Cc1cccc(S(=O)(=O)N2CCC(Nc3ncc(OC(F)F)cn3)CC2)c1)CN1CCC(c2ccc3c(N4CCC(=O)NC4=O)nn(C)c3c2)CC1 (centres unmarked) [Example 66, 1-(6-(1-(3-(3-((4-((5-(difluoromethoxy)-pyrimidin-2-yl)amino)piperidin-1-yl)sulfonyl)phenyl)-2-methylpropyl)-piperidin-4-yl)-1-methyl-1H-indazol-3-yl)dihydropyrimidine-2,4(1H,3H)-dione]	1 to 100	1 to 10
Cn1nc(N2CCC(=O)NC2=O)c2ccc(C3CCN(CC4(C)CCN(c5cccc(S(=O)(=O)N6CCC(Nc7ncc(Cl)cn7)CC6)c5)CC4)CC3)cc21 [Example 206, 1-(6-(1-((1-(3-((4-((5-chloropyrimidin-2-yl)amino)piperidin-1-yl)sulfonyl)phenyl)-4-methylpiperidin-4-yl)methyl)piperidin-4-yl)-1-methyl-1H-indazol-3-yl)dihydropyrimidine-2,4(1H,3H)-dione]	1 to 100	10 to 100
O=C1CCN(c2nn(CC(F)(F)F)c3cc(C4CCN(CC5CCN(c6cccc(S(=O)(=O)N7CCC(Nc8ncc(C(F)(F)F)cn8)CC7)c6)CC5)CC4)ccc23)C(=O)N1 [Example 91, 1-(1-(2,2,2-trifluoroethyl)-6-(1-((1-(3-((4-((5-(trifluoromethyl)pyrimidin-2-yl)amino)piperidin-1-yl)sulfonyl)phenyl)-piperidin-4-yl)methyl)piperidin-4-yl)-1H-indazol-3-yl)dihydropyrimidine-2,4(1H,3H)-dione]	100 to 500	10 to 100
Cn1nc(N2CCC(=O)NC2=O)c2ccc(C3CCN(Cc4cccc(S(=O)(=O)N5CCC(Nc6ncc(Cl)cn6)CC5)c4)CC3(F)F)cc21 (centres unmarked) [Example 33, 1-(6-(1-(3-((4-((5-chloropyrimidin-2-yl)amino)piperidin-1-yl)sulfonyl)benzyl)-3,3-difluoropiperidin-4-yl)-1-methyl-1H-indazol-3-yl)dihydropyrimidine-2,4(1H,3H)-dione]	100 to 500	10 to 100
C[C@@H]1CN(CC2CCN(c3cccc(S(=O)(=O)N4CCC(Nc5ncc(Cl)cn5)CC4)c3)CC2)CCN1c1ccc2c(N3CCC(=O)NC3=O)nn(C)c2c1 [Example 116, (R)-1-(6-(4-((1-(3-((4-((5-chloropyrimidin-2-yl)amino)piperidin-1-yl)sulfonyl)phenyl)-piperidin-4-yl)methyl)-2-methylpiperazin-1-yl)-1-methyl-1H-indazol-3-yl)dihydropyrimidine-2,4(1H,3H)-dione]	1 to 100	10 to 100
O=C1CCC(N2Cc3cc(C4CCN(CC5CCN(c6cccc(S(=O)(=O)N7CCC(Nc8ncc(C(F)(F)F)cn8)CC7)c6)CC5)CC4)c(F)cc3C2=O)C(=O)N1 (centres unmarked) [Example 119, 3-(6-fluoro-1-oxo-5-(1-((1-(3-((4-((5-(trifluoromethyl)pyrimidin-2-yl)amino)-piperidin-1-yl)sulfonyl)phenyl)piperidin-4-yl)methyl)piperidin-4-yl)isoindolin-2-yl)piperidine-2,6-dione]	1 to 100	1 to 10
O=C1CCC(N2Cc3cc(N4CCC(N5CC(Oc6cccc(S(=O)(=O)N7CCC(Nc8ncc(C(F)(F)F)cn8)CC7)c6)C5)CC4)ccc3C2=O)C(=O)N1 (centres unmarked) [Example 92, 3-(1-oxo-5-(4-(3-(3-((4-((5-(trifluoro-methyl)pyrimidin-2-yl)amino)piperidin-1-yl)sulfonyl)phenoxy)azetidin-1-yl)piperidin-1-yl)isoindolin-2-yl)piperidine-2,6-dione]	100 to 500	1 to 10
O=C1CCC(N2Cc3cc(N4CCN(Cc5cccc(S(=O)(=O)N6CCC(Nc7ncc(OC(F)F)cn7)CC6)c5)CC4)c(F)cc3C2=O)C(=O)N1 (centres unmarked) [Example 74, 3-(5-(4-(3-((4-((5-(difluoromethoxy)-pyrimidin-2-yl)amino)piperidin-1-yl)sulfonyl)benzyl)piperazin-1-yl)-6-fluoro-1-oxoisoindolin-2-yl)piperidine-2,6-dione]	100 to 500	1 to 10

More lines, now with the values ahead:

IC50 (CDK2 [1]) [nM]	DC50 (CDK2 [2]) [nM]	Structure (SMILES)
1 to 100	10 to 100	CC(Cc1cccc(S(=O)(=O)N2CCC(Nc3ncc(Cl)cn3)CC2)c1)CN1CCC(c2ccc3c(N4CCC(=O)NC4=O)nn(C)c3c2)CC1 (centres unmarked) [Example 53, 1-(6-(1-(3-(3-((4-((5-chloropyrimidin-2-yl)amino)piperidin-1-yl)sulfonyl)phenyl)-2-methylpropyl)piperidin-4-yl)-1-methyl-1H-indazol-3-yl)dihydropyrimidine-2,4(1H,3H)-dione]
1 to 100	1 to 10	Cn1nc(N2CCC(=O)NC2=O)c2ccc(C3CCN(CCCc4cccc(S(=O)(=O)N5CCC(Nc6ncc(C(F)(F)F)cn6)CC5)c4)CC3)cc21 [Example 87, 1-(1-methyl-6-(1-(3-(3-((4-((5-(trifluoro-methyl)pyrimidin-2-yl)amino)piperidin-1-yl)sulfonyl)phenyl)propyl)piperidin-4-yl)-1H-indazol-3-yl)dihydropyrimidine-2,4(1H,3H)-dione]
1 to 100	10 to 100	Cn1nc(N2CCC(=O)NC2=O)c2ccc(C3CCN(Cc4cccc(S(=O)(=O)N5CCC(Nc6ncc(C(F)(F)F)cn6)CC5)c4)CC3)c(F)c21 [Example 2, 1-(7-fluoro-1-methyl-6-(1-(3-((4-((5-(trifluoromethyl)pyrimidin-2-yl)amino)piperidin-1-yl)sulfonyl)benzyl)-piperidin-4-yl)-1H-indazol-3-yl)dihydropyrimidine-2,4(1H,3H)-dione]
100 to 500	1 to 10	C=Cc1cnc(NC2CCN(S(=O)(=O)c3cccc(CN4CCC(c5ccc6c(N7CCC(=O)NC7=O)nn(C)c6c5)CC4)c3)CC2)nc1 [Example 58, 1-(1-methyl-6-(1-(3-((4-((5-vinylpyrimidin-2-yl)amino)piperidin-1-yl)sulfonyl)benzyl)-piperidin-4-yl)-1H-indazol-3-yl)dihydropyrimidine-2,4(1H,3H)-dione]
1 to 100	1 to 10	Cn1nc(N2CCC(=O)NC2=O)c2ccc(C3CCN(Cc4ccc(S(=O)(=O)N5CCC(Nc6ncc(C(F)(F)F)cn6)CC5)cc4)CC3)cc21 [Example 64, 1-(1-methyl-6-(1-(4-((4-((5-(trifluoro-methyl)pyrimidin-2-yl)amino)piperidin-1-yl)sulfonyl)benzyl)piperidin-4-yl)-1H-indazol-3-yl)dihydropyrimidine-2,4(1H,3H)-dione]
1 to 100	10 to 100	Cn1nc(N2CCC(=O)NC2=O)c2ccc(C3CCN(CC(C)(C)Cc4cccc(S(=O)(=O)N5CCC(Nc6ncc(C(F)(F)F)cn6)CC5)c4)CC3)cc21 [Example 55, 1-(6-(1-(2,2-dimethyl-3-(3-((4-((5-(trifluoro-methyl)pyrimidin-2-yl)amino)piperidin-1-yl)sulfonyl)phenyl)propyl)piperidin-4-yl)-1-methyl-1H-indazol-3-yl)dihydropyrimidine-2,4(1H,3H)-dione]
